Measurements taken from patent US9468646B2, “Increased dosage of efavirenz for the treatment of cancer” (Alienor Farma, priority 2013, dated 2016).
Several values for one entry are separate records, joined by “and”; a condition that tells them apart may be missing. Identical values can stand only once. Like-named read-outs stand apart in the source and are kept apart here.

Key:
[1] = ESCALE study: Efavirenz plasma concentration depending on daily dose (UPLC-MS/MS); type: in vivo, human; settings: for mean plasma concentration of Efavirenz: three patients
Excerpt: The […] clinical study is a single arm, single center (Bergonie Institute), and dose escalation phase I study. Objectives of this study are to assess the safety, tolerability, and recommended dose of Efavirenz administered orally, by continuous once-daily administration in patients with solid tumors (no pancreatic cancer) and Non-Hodgkin Lymphoma (NHL) who have failed chemotherapy treatment. The scheme of the study is a dose escalation evaluated by continual reassessment method likelihood approach (O'Quickley, 1996). […] The maximal subject number assessable is 30 patients. Blood samples for the evaluation of Efavirenz plasma concentrations were taken at 14 days, 28 days after the start of Efavirenz treatment. For Efavirenz plasma concentration determination, 10 ml of blood were collected using sodium or lithium heparinate tubes. After each blood collection, the tubes of blood were centrifuged for 5 minutes at 5000 g. Plasma was collected in polypropylene tubes. The plasma tubes of each subject were packed and stored in appropriately labelled plastic frost-resistant bags and stored at -20° C. until analysis. Samples were sent to a pharmacokinetic analysis laboratory for Efavirenz concentration analysis that was performed using a validated mass-spectrometry coupled to liquid chromatography (UPLC-MS/MS) method. […] The sample was vortex-mixed for 30 sec, and then 5 mL of diethyl ether was added. After 15 min under agitation, the organic and aqueous phases were separated by centrifugation at 3000 rpm for 10 min. […] The residue was re-dissolved in 150 μL of methanol. The UPLC-MS/MS unit consisted of Waters ACQUITY UPLC® instrument coupled with an Acquity TQD® detector. Separations were performed at 40° C. on an Acquity UPLC® BEH C18 column (50*2.1 mm) at a flow rate of 0.3 mL/min. Gradient elution was performed over 2.3 minutes using a combination of acetonitrile and ammonium formate buffer (4 mM) as mobile phase. […] Calibration curves were obtained by analysis of standard solutions prepared in plasma in the range 100-10000 ng/mL and limit of quantification (LOQ) was 2.5 ng/mL.

[2] = tested on: hormone refractory prostate cancer; experiment: FAVE follow up study: progression free survival (RECIST) and overall survival, ITT analysis; type: in vivo, human
Description: For the exploratory analysis, following the latest recommendations of the Prostate Cancer Clinical Trials Working Group (Scher, 2008), PSA progression was defined as an increase of more than 25% over the baseline and an increase in the concentrations of PSA of at least 2 ng/ml. The clinical symptoms, the number of new bone metastasis and the global response to treatment (evaluated by the RECIST criteria) were also recorded. After three months, the global response and the overall survival were evaluated in a follow up study. This approach was followed by an interventional approach aimed to establish a causal relationship between dose and efficacy of the treatment. In this case after three months of treatment at the 600 mg/day dose, the doses of Efavirenz were progressively raised to reach 1.2 g/day. Differences in disease progression as a function of plasma Efavirenz concentrations were confirmed in the follow up study. […] Log-rank Mantel-Cox's test, the <1500 and 1500-3000 groups were cumulated for statistical analysis). […] These thirteen patients were used to constitute the dose escalation group.

[3] = tested on: metastatic hormone-refractory prostate cancer; experiment: FAVE study: PSA progression at 3 months under Efavirenz; type: in vivo, human; settings: 600 mg/day; for PSA progression (share of subjects): 3 months
Description: For the exploratory analysis, following the latest recommendations of the Prostate Cancer Clinical Trials Working Group (Scher, 2008), PSA progression was defined as an increase of more than 25% over the baseline and an increase in the concentrations of PSA of at least 2 ng/ml. The clinical symptoms, the number of new bone metastasis and the global response to treatment (evaluated by the RECIST criteria) were also recorded. After three months, the global response and the overall survival were evaluated in a follow up study. Patients received 600 mg of Efavirenz per day and, during Efavirenz treatment, hormone therapy was maintained. […] However, it is difficult to predict precisely the efficacious dose in humans based on preclinical data. For this reason, the goal of the FAVE study was twofold: 1. […] Explore the relationship between the dose of the compound and clinical efficacy. In order to establish the minimal efficacious dose that could be effective for the treatment of prostate cancer the inventor used a correlational approach in which plasma concentrations of Efavirenz were related to treatment efficacy measured at the three month time point. Sixty-one patients were included in the study and fifty-three patients had no violation of the eligibility criteria and received Efavirenz at least once (general population). The assessment of Efavirenz plasma concentrations was an optional exploratory objective to which the patients had to expressly consent. Plasma Efavirenz concentrations at the three month time point were available for 41 patients that were used for the exploratory analysis.

[4] = rat, intravenous injection of 5 mg/kg; cited from earlier work
[5] = FAVE study: Efavirenz plasma concentration (UPLC-MS/MS); type: in vivo, human; settings: 600 mg/day
Excerpt: Sixty-one patients were included in the study and fifty-three patients had no violation of the eligibility criteria and received Efavirenz at least once (general population). The assessment of Efavirenz plasma concentrations was an optional exploratory objective to which the patients had to expressly consent. Plasma Efavirenz concentrations at the three month time point were available for 41 patients that were used for the exploratory analysis. Blood samples for the evaluation of Efavirenz plasma concentrations were taken at three months after the start of Efavirenz treatment. For Efavirenz plasma concentration determination, 10 ml of blood were collected using sodium or lithium heparinate tubes. After each blood collection, the tubes of blood were centrifuged for 5 minutes at 5000 g. Plasma was collected in polypropylene tubes. The plasma tubes of each subject were packed and stored in appropriately labelled plastic frost-resistant bags and stored at −20° C. until analysis. Samples were sent to a pharmacokinetic analysis laboratory for Efavirenz concentration analysis that was performed using a validated mass-spectrometry coupled to liquid chromatography (UPLC-MS/MS) method. […] Calibration curves were obtained by analysis of standard solutions prepared in plasma in the range 100-10000 ng/mL and limit of quantification (LOQ) was 2.5 ng/mL.

[6] = Pharmacokinetic study in rats (Balani et al 1999); type: in vivo; settings: rat, intravenous injection of 5 mg/kg, converted from μM
[7] = cited from earlier work
L1-RT = settings: human tumor cell lines; cited from earlier work

Structure (SMILES) | mean plasma concentration of Efavirenz ([1]; 1800 mg/day) | mean plasma concentration of Efavirenz ([1]; 2200 mg/day) | patients with Efavirenz plasma concentration of at least 3000 ng/ml ([1]; daily dose between 1800 and 2200 mg) [%] | median progression free survival ([2]; dose escalation group: up to 1200 mg/day, originally <3000 ng/ml, 13 patients) [months] | median progression free survival ([2]; low (<1500 ng/ml) and intermediate (1500-3000 ng/ml) groups cumulated) [months] | median progression free survival ([2]; plasma Efavirenz 1500-3000 ng/ml group) [months] | median progression free survival ([2]; plasma Efavirenz <1500 ng/ml group) [months] | median progression free survival ([2]; plasma Efavirenz <3000 ng/ml, no dose escalation (600 mg/day)) [months] | median progression free survival ([2]; plasma Efavirenz >3000 ng/ml group) [months] | PSA progression (share of subjects) ([3]; plasma Efavirenz 1500-3000 ng/ml group, N=22) [%] | PSA progression (share of subjects) ([3]; plasma Efavirenz <1500 ng/ml group, N=12) [%] | non-progressions for PSA levels at 3 months (share of patients) ([3]; all treated patients, N=53) [%] | patients in whom the disease continued to progress (PSA) at 3 months ([3]; all treated patients, N=53) [%] | maximal plasma concentration [4] [µM] | patients with Efavirenz plasma concentration of at least 1500 ng/ml ([5]; 3 months, 41 patients) [%] | concentration at 3 months ([5]; human, plasma, cancer patients) [ng/mL] | maximal plasma concentration [6] [ng/mL] | subjects with plasma concentrations above 1500 ng/ml ([7]; 600 mg/day (Marzolini, 2001)) | Efavirenz plasma concentration reached ([7]; 600 mg/day, patients with two loss or decrease of function CYP2B6 alleles (Rotger, 2007)) | reverse transcriptase activity of L1-RT (L1-RT)
O=C1Nc2ccc(Cl)cc2[C@@](C#CC2CC2)(C(F)(F)F)O1 [Efavirenz] | 3712 ng/mL and > 3000 ng/mL and > 3500 ng/mL | 7364 ng/mL and > 6500 ng/mL | 84 | 10 | 3 | 3 | 3 | 3 | 17 | 81.8 | 83.3 | 28 | 72 | 5 | 70 | 2140 | 1578 | 70-80% | at least 3000 ng/ml | 
Cc1ccnc2c1NC(=O)c1cccnc1N2C1CC1 [Nevirapine] |  |  |  |  |  |  |  |  |  |  |  |  |  |  |  |  |  |  |  | able to inhibit
